The nature of data set [1]: Rotarod test (motor coordination). It counts as in vivo. Particulars: male, Swiss albino (CD-1), mouse, in vivo, ip, mice. As to the method:
(§1) All procedures were carried out in accordance with applicable Polish and international guidelines on the ethics of animal testing, after obtaining appropriate institutional approval. The substances were administered intraperitoneally (i.p.), in 1% aqueous solution of Tween, as single injections with a volume of 10 ml/kg, 30 minutes before the given test. Screening was performed on groups consisted of 4 mice. […] All tests were carried out based on the procedures described in the specialist literature.
Mice were trained the day before the actual experiment. They were placed individually on a 2 cm diameter rod rotating at 10 revolutions per minute (rpm). During each training session, the animals remained on the rod for 3 minutes. The experiment was carried out 30 minutes after administration of the compounds. Motor coordination was tested at the speed of the rotating bar: 10 rpm during 60 seconds. Motor impairments were defined as the inability to remain on the rotating rod for 1 min.
(§2) To perform a statistical evaluation of the results, one-way ANOVA variance analysis and Dunnett's post hoc test (multiple comparison test) were used. The value at the significance level p<0.05 was considered statistically significant.
Background: In the rotarod test animals must keep their balance on a rotating rod.

Data set [2] has as its system male Swiss albino mice (CD-1). The experiment in a line: Maximal electroshock seizure test (MES). In kind it is in vivo. Particulars: 0.5 h, mice; for ED50 / responders at 100 mg/kg: Mus musculus, ip; for responders at 100 mg/kg: read-out: MES: number of mice protected/number of mice tested (converted). As to the method: (§3) The male Swiss albino mice (CD-1) weighing 18-26 g were used. All procedures were carried out in accordance with applicable Polish and international guidelines on the ethics of animal testing, after obtaining appropriate institutional approval. The substances were administered intraperitoneally (i.p.), in 1% aqueous solution of Tween, as single injections with a volume of 10 ml/kg, 30 minutes before the given test. Screening was performed on groups consisted of 4 mice. The average effective dose (ED50) in given test and toxic dose in the rotarod test (TD50) was estimated based on the results obtained in 3-4 groups of animals consisting of 6 mice. All tests were carried out based on the procedures described in the specialist literature.
In the MES test, the seizures were induced by an electrical stimulus lasting of 0.2 s duration, 500 V voltage and 25 mA intensity. The electrical stimuli was generated using an electric shock generator (Rodent shocker, Type 221, Hugo Sachs Elektronik, Germany) and delivered to the animal using electrodes placed on the auricles. The study was conducted 30 minutes after intraperitoneal administration of the compounds at various doses. During the experiment, the number of animals that experienced a seizure episode in the form of tonic extension of the hind limbs was counted (Kamiński, K.; Rapacz, A.; Łuszczki, J. J.; Latacz, G.; Obniska, J.; Kieć-Kononowicz, K.; Filipek, B. Bioorg. Med. Chem. 2015, 23, 2548-2561; Castel-Branco, M. M.; Alves, G. L.; Figueiredo, I. V.; Falcão, A. C.; Caramona, M. M. Methods Find. Exp. Clin. Pharmacol. 2009, 31, 101-106).
as §2
In general terms: In the maximal electroshock model the usual endpoint is tonic extension of the hind limbs.

Data set [3] relates to male Swiss albino mice (CD-1). The experiment in a line: Psychomotor seizure test 6 Hz (32 mA). It counts as in vivo. The settings on record: Mus musculus, ip, 0.5 h, mice; for responders at 100 mg/kg: screening, 100 mg/kg i.p., read-out: 6 Hz (32 mA): number of mice protected/number of mice tested (converted). How it is done: as §3
In the 6 Hz test, seizures were induced by an electric stimulus of 32 mA and/or 44 mA and a frequency of 6 pulses per second. An electrical pulse was generated using an electric shock generator (ECT Unit 57800; Ugo Basile, Gemonio, Italy) and delivered to the animal using ocular electrodes. Before starting the test, the eye surface was gently moistened with a solution of local anesthetic (1% lidocaine solution). The study was conducted 30 minutes after intraperitoneal administration of the compounds at various doses. An electrical pulse was delivered continuously for a period of 3 seconds, followed by observation of the animal for a period of 10 seconds. During this time, immobility or stun associated with rearing, forelimb clonus, twitching of the vibrissae and Straub's tail were observed. These symptoms persist throughout the observation period, indicating the occurrence of psychomotor seizures in mice. Mice resuming normal behavior within 10 s after stimulation were considered as protected (Barton, M. E.; Klein, B. D.; Wolf, H. H.; White, H. S. Epilepsy Res. 2001, 47, 217-227; Wojda, E.; Wlaź, A.; Patsalos, P. N.; Łuszczki, J. J. Epilepsy Res. 2009, 86, 163-174).
as §2

Data set [4] has as its system male Swiss albino mice (CD-1). The experiment in a line: Psychomotor seizure test 6 Hz (44 mA). The settings on record: 0.5 h, mice; for ED50: Mus musculus, ip; for 6 Hz (44 mA): number of mice protected/number of mice tested: screening, 100 mg/kg i.p. It counts as in vivo. How it is done:
as §1
In the 6 Hz test, seizures were induced by an electric stimulus of 32 mA and/or 44 mA and a frequency of 6 pulses per second. […] Before starting the test, the eye surface was gently moistened with a solution of local anesthetic (1% lidocaine solution). The study was conducted 30 minutes after intraperitoneal administration of the compounds at various doses. An electrical pulse was delivered continuously for a period of 3 seconds, followed by observation of the animal for a period of 10 seconds. During this time, immobility or stun associated with rearing, forelimb clonus, twitching of the vibrissae and Straub's tail were observed. These symptoms persist throughout the observation period, indicating the occurrence of psychomotor seizures in mice.
as §2

In data set [5] the test system is male Swiss albino mice (CD-1). The experiment in a line: Subcutaneous pentylenetetrazole seizure test (scPTZ). The settings on record: 0.5 h, mice; for ED50 / responders at 100 mg/kg: Mus musculus, ip; for responders at 100 mg/kg / scPTZ: number of mice protected/number of mice tested: screening, 100 mg/kg i.p.; for responders at 100 mg/kg: read-out: scPTZ: number of mice protected/number of mice tested (converted). It counts as in vivo. As to the method:
as §3
In the scPTZ test, seizures were induced by subcutaneous administration of pentylenetetrazole (PTZ) at a dose of 100 mg/kg. This caused clonic seizures with accompanying loss of the righting reflex. Test compounds were administered 30 minutes before the experiment. After PTZ administration, the animals were placed individually in transparent containers and observed for a period of 30 minutes for the occurrence of clonic seizures. During this time, the latency of the first onset of clonic seizures, defined as clonus of the whole body lasting at least 3 seconds with loss of the righting reflex and the number of seizure episodes during the test were noted and compared with control group. The absence of clonic convulsions within the observed time period was interpreted as the compound's ability to protect against PTZ-induced seizures (Ferreri, G.; Chimirri, A.; Russo, E.; Gitto, R.; Gareri, P.; De Sarro, A.; De Sarro, G. Pharmacol. Biochem. Behav. 2004, 77, 85-94; Łączkowski, K.; Sałat, K.; Misiura, K.; Podkowa, A.; Malikowska, N. J. Enzyme Inhib. Med. Chem. 2016, 31, 1576-82).
as §2

Data set [6] in a line: Metabolic stability in human liver microsomes. In kind it is in vitro ADME. As to the method:
Metabolic stability. The metabolic stability of compound 6 was evaluated using human liver microsomes (HLMs). Internal clearance values CLint were calculated by monitoring changes in compound concentration in the presence of microsomes per unit of time, according to the procedure proposed by Obach R. S. (Obach, R. S. Drug Metab. Dispos. 1999, 27, 1350-1359).
Metabolic stability tests—methodology. Metabolic stability studies for compound 6 were performed using HLMs (Promega, Madison, WI, USA). For this purpose, 10 μL of compound 6 at a concentration of 1000 μM was diluted with 132 μL with tris-HCl buffer (100 mM, pH 7.4), followed by the addition of 8 μL of appropriate microsomes. The reaction mixture was preincubated at 37° C. for 5 minutes, followed by the addition of 50 μL of NADPH Regeneration System, supplied by Promega (Madison, WI, USA). After mixing, the whole mixture was incubated at 37° C. for 120 minutes. To complete the reaction, 200 μL of cold methanol was added to the tubes and centrifuged. The supernatant was subjected to UPLC/MS analysis, including fragmentation analysis. Four mixtures of 6 with HLMs were prepared to determine the internal clearance CLint. Each of these reactions was completed at a different time point, after 5, 15, 30 and 45 min, by the addition of cold methanol containing 50 μM internal standard. Then, according to literature guidelines (Obach, R. S. Drug Metab. Dispos. 1999, 27, 1350-1359), based on the plot of the relationship between the height of the peak from 6 and the height of the internal standard, the regression equation was determined and the reaction rate constant k was calculated. Then the constant k was substituted to equation (1).
The calculated t1/2 value was then substituted into equation (2): […]
(Liver microsomes are a subcellular fraction often used to study metabolism.)

Where only a bound is given, the exact number is not on record here.

This is an account of results in patent publication US12139458B2, “(2,5-dioxopyrrolidin-1-yl)(phenyl)-acetamide derivatives and their use in the treatment of neurological diseases” (UNIWERSYTET JAGIELLONSKI, priority 2019, dated 2024).

The term TD50 denotes the dose at which the toxic effect under study appears in half of the subjects. Low readings indicate greater toxicity, high ones lower toxicity. The term ED50 denotes the dose at which the effect has come halfway, by size or by number of responders. The melting point is the temperature, or range, at which the solid turns liquid.

Take `O=C(C(c1ccccc1)N1C(=O)CCC1=O)N1CCN(c2cccc(C(F)F)c2)CC1` (racemic) [Compound 9, 1-(2-Oxo-1-phenyl-2-(4-(3-(difluoromethyl)phenyl)piperazin-1-yl)ethyl)pyrrolidine-2,5-dione]: the melting point was 156.4 to 157.6 °C. In data set [1], this compound yielded a TD50 at 0.5 h of 274 mg/kg. This compound also displayed an ED50 in data set [2] of 97.7 mg/kg. Also, the ED50 in data set [3] was 63 mg/kg. The compound also returned an ED50 in data set [4] of 196 mg/kg. This compound came in with an ED50 in data set [5] of 94.3 mg/kg.
The compound `O=C(C(c1ccccc1)N1C(=O)CCC1=O)N1CCN(c2cccc(OC(F)(F)F)c2)CC1` (racemic) [Compound 10, 1-(2-Oxo-1-phenyl-2-(4-(3-(trifluoromethoxy)phenyl)piperazin-1-yl)ethyl)pyrrolidine-2,5-dione] gave a melting point of 100.3 to 101.6 °C. Moreover, in data set [1], the TD50 at 0.5 h stood at 74 mg/kg. Besides, the ED50 in data set [2] was 41.7 mg/kg. Besides, the responders at 100 mg/kg in data set [2] (screening, 100 mg/kg i.p.) was 100%. In data set [3], the ED50 was 38.3 mg/kg and the responders at 100 mg/kg was 100%. Further, the “6 Hz (44 mA): number of mice protected/number of mice tested” value in data set [4] is reported as “¾”. Further, in data set [5], the ED50 is under 60 mg/kg and the responders at 100 mg/kg is 50%.
`O=C(C(c1ccccc1)N1C(=O)CCC1=O)N1CCN(c2cccc(-c3ccccc3)c2)CC1` (racemic) [Compound 13, 1-(2-(4-([1,1′-Biphenyl]-3-yl)piperazin-1-yl)-2-oxo-1-phenylethyl)pyrrolidine-2,5-dione] returned a melting point of 114.1 to 115.4 °C. Besides, the TD50 at 0.5 h in data set [1] was determined as 73.6 mg/kg. This compound showed an ED50 in data set [2] of 43.9 mg/kg. Also, the responders at 100 mg/kg in data set [2] (screening, 100 mg/kg i.p.) is 100%. Moreover, in data set [3], the ED50 worked out at 26.2 mg/kg and the responders at 100 mg/kg was 100%. Further, in data set [4], the “6 Hz (44 mA): number of mice protected/number of mice tested” value is on record as 4/4. In addition, in data set [5], the ED50 is under 100 mg/kg and the responders at 100 mg/kg was 50%.
Compound `O=C(C(c1ccccc1)N1C(=O)CCC1=O)N1CCC(c2cccc(C(F)(F)F)c2)CC1` (racemic) [Compound 19, 1-(2-Oxo-1-phenyl-2-(4-(3-(trifluoromethyl)phenyl)piperidin-1-yl)ethyl)pyrrolidine-2,5-dione] came in with a melting point of 100.1 to 101.5 °C. The same compound showed a TD50 at 0.5 h in data set [1] of 254 mg/kg. Further, the ED50 in data set [2] came out at 81.8 mg/kg. In data set [2] (screening, 100 mg/kg i.p.), the responders at 100 mg/kg is 100% and the “MES: number of mice protected/number of mice tested” value is recorded as “¾”. In data set [3], the ED50 came out at 41 mg/kg and the responders at 100 mg/kg is 100%. In addition, the “6 Hz (44 mA): number of mice protected/number of mice tested” value in data set [4] was 2/4. For the same compound, in data set [5], the ED50 was under 100 mg/kg and the responders at 100 mg/kg was 100%. Moreover, the “scPTZ: number of mice protected/number of mice tested” value in data set [5] (100 mg/kg) is listed as “¾”.
Regarding `O=C([C@@H](c1ccccc1)N1C(=O)CCC1=O)N1CCN(c2cccc(C(F)(F)F)c2)CC1` [(R)-6, (R)-1-(2-Oxo-1-phenyl-2-(4-(3-(trifluoromethyl)phenyl)piperazin-1-yl)ethyl) pyrrolidine-2,5-dione], the TD50 at 0.5 h in data set [1] amounted to 468 mg/kg. Besides, the median effective dose (ED50) is 36 mg/kg in data set [2], 39.1 mg/kg in data set [3], 115 mg/kg in data set [4] and 54.8 mg/kg in data set [5]. The responders at 100 mg/kg in data set [2] (screening, 100 mg/kg i.p.) was 100%; in data set [3], 100%. In addition, the “metabolites found by UPLC after incubation with HLMs” value in data set [6] (120 min incubation, UPLC/MS) was “two metabolites”. Further, in data set [6] (human, human liver microsomes, pH 7.4, incubation with HLMs, read-out: internal clearance CLint), the CLint scaled at 50 µM is 2.4 mL/min/kg. Also, the “6 Hz (44 mA): number of mice protected/number of mice tested” value in data set [4] is “¾”. Further, the “scPTZ: number of mice protected/number of mice tested” value in data set [5] is “¾”.
